In US20090117607A1, “Methods For Differential Detection Of Hypoxic Tissue From A Tissue Sample Of A Mammalian Subject” (priority 2007, published 2009):
Several values for one entry are separate records, joined by “and”; a condition that tells them apart may be missing. Equal values may be shown once. Read-outs that look alike come from different tables or passages of the source.

Experiments:
[1] = tested on: head and neck squamous cell carcinoma (HNSCC) tumor tissue; test: Quantitative fluorescence immunohistochemical analysis of EF5 binding in HNSCC tumor sections of patients; type: in vivo, human; set-up: key to Maximum CF95 Mean: % of CRB (maximal EF3 binding), scale 0-100%
Experimental: EF5 Administration. The National Cancer Institute, Division of Cancer Treatment supplied EF5 in 100 mL vials containing an aqueous solution of 3 mg/mL EF5 also containing 5% dextrose and 2.4% ethanol. This EF5 solution was administered through a peripheral IV catheter, 24-48 hours before surgery at a rate no greater than 350 mL/hr and to a total dose of 9-21 mg/kg. Blood samples for drug levels were obtained before and 1 hour after the completion of drug administration, and at the time of surgery. Calculation of drug time/dose concentration (area under the curve, AUC) allowed the absolute EF5 tissue binding level to be corrected for variations in drug dose and exposure time between patients. Koch, et al., Cancer Chemother. Pharmacol., 2001, 48, 177-187.
Tissue Acquisition and processing for EF5 Binding. 24-48 hours after completion of drug administration, tumors were resected or biopsied and placed in sterile, iced EXCELL 610 medium (JRH Biosciences, Lenexa, Kans.). In collaboration with the pathologist, tissue samples deemed unnecessary for clinical diagnosis were taken to the lab for processing and analysis.
IHC staining methods and quantitative fluorescence microscopy of EF5 in in situ tumor sections and EF3 in tissue cubes for cube reference binding (CRB) were performed as reported previously. Evans, et al., Cancer Res., 2004, 64, 1886-1892. CRB determination is an in vitro technique where tissue cubes are incubated in 200 μM EF3, a sister drug of EF5, under controlled hypoxic conditions for 3 hours. The goal of this procedure was to determine the maximum level of EF3 binding possible for each patient's tumor. This technique allowed normalization of the in situ EF5 binding to each tumor's maximum binding value after correction for the AUC. Koch, et al., Cancer Chemother. Pharmacol., 2001, 48, 177-187. These values were used to calculate the maximum and average ‘% CRB’ value for each tumor, as described previously and briefly below. Evans, et al., Cancer Res., 2000, 60, 2018-2024. Thus, EF5 binding values for each tumor tissue are reported on a scale of 0-100% allowing for comparisons within and between tumors.
Quantitative Image analysis. The quantitative analysis of tumor sections stained for EF3/EF5 has been previously described. Evans, J. Invest. Derm., 2006; Evans, et al., Int. J. Radiat. Oncol., Biol., Phys., 2001, 49, 587-596; Busch, et al., Adv Exp Med. Biol., 2003, 510, 37-43. Briefly, tissue sections were counterstained with Hoechst 33342 to identify the location of intact nuclei. These images were used to create bitmaps in order to generate binary masks of viable tissue regions. Masked regions of each section were analyzed for EF5-dependent immunofluorescence intensity using routines written in MatLab (The MathWorks, Inc., Natick, Mass.). EF5 intensity values of these regions were corrected for tissue section thickness, camera exposure time, relative lamp intensity, EF5 drug exposure (AUC) and CRB. Evans, et al., Cancer Res., 2000, 60, 2018-2024; Evans, et al., Int. J. Radiat. Oncol., Biol., Phys., 2001, 49, 587-596; Evans, et al, Clin. Cancer Res., 2004, 10, 8177-8184; Koch, et al., Cancer Chemother. Pharmacol., 2001, 48, 177-187. Data were then summarized by generating histograms of all positive pixels in the masked image, which were then converted into a cumulative frequency plot. The number of pixels at or below a given binding level can be identified from this plot. For example, CF95=20% would mean that 95% of the EF5 values in the image were at or below 20% of CRB. Terms to describe tissue oxygenation based on EF5 studies have been approximated by data from in vitro studies (Table 1). Koch, Method Enzymol., 2002, 352, 3-31. Normoxic conditions correspond to a CF95≈1%; for modestly/mildly hypoxic conditions, CF95≈3%; for moderately hypoxic conditions, CF95≈10%; for severely hypoxic conditions, CF95≈30%, and for anoxia, the CF95100%. The pO2 corresponding to these descriptive terms is found in Table 1. […]

[2] = EF5-related toxicity in patients after IV EF5 administration; type: in vivo, human; settings: 22 HNSCC patients
From the text: Human Subjects. The Institutional Review Board of the University of Pennsylvania Clinical Trials and Scientific Monitoring Committee at the University of Pennsylvania Abramson Cancer Center and the Cancer Therapeutics Evaluation Program of the National Cancer Institute approved this prospective trial of EF5. All patients signed an approved consent form for both the study and for privacy (HIPPA). Patients of all ethnic and gender groups were included. Eligible patients were those undergoing resection or biopsy of a HNSCC as clinically indicated. Exclusion criteria included patients with a history of grade III or IV peripheral neuropathy, pregnant or nursing patients and patients <18 years old. Coleman, et al., Int. J. Radiat. Oncol., Biol., Phys., 1990, 18, 389-393. EF5 Administration. The National Cancer Institute, Division of Cancer Treatment supplied EF5 in 100 mL vials containing an aqueous solution of 3 mg/mL EF5 also containing 5% dextrose and 2.4% ethanol. This EF5 solution was administered through a peripheral IV catheter, 24-48 hours before surgery at a rate no greater than 350 mL/hr and to a total dose of 9-21 mg/kg. Blood samples for drug levels were obtained before and 1 hour after the completion of drug administration, and at the time of surgery. […]

hypoxic cells = settings: cited from earlier work
HNSCC = settings: meta-analysis of trials; cited from earlier work
HNSCC hypoxic tumors = settings: 45 HNSCC patients, adjuvant cisplatin with tirapazamine; cited from earlier work

Q: What does the source list for `O=C(Cn1ccnc1[N+](=O)[O-])NCC(F)(F)C(F)(F)F` [EF5]?
A: Maximum CF95 Mean ([1]; Age <60 y (11)): 25.66; Maximum CF95 Mean ([1]; Age ≧60 y (11)): 21.11; Maximum CF95 Mean ([1]; All patients (22)): 23.38; Maximum CF95 Mean ([1]; Differentiation: Moderate (10)): 20.00; Maximum CF95 Mean ([1]; Differentiation: Moderate to poor, poor (7)): 35.87; Maximum CF95 Mean ([1]; Differentiation: Well, well to moderate (5)): 12.65; Maximum CF95 Mean ([1]; Gender: Men (18)): 26.74; Maximum CF95 Mean ([1]; Gender: Women (4)): 8.27; Maximum CF95 Mean ([1]; Nodal stage N0-N1 (15)): 17.96; Maximum CF95 Mean ([1]; Nodal stage N2-N3 (7)): 35.00; EF5 binding average CF95 ([1]; individual patient tumor, average of all tissue sections, biopsy 24-48 h after EF5 IV 9-21 mg/kg): 0.8 % CRB and 0.9 % CRB and 1.9 % CRB and 1.1 % CRB and 4.2 % CRB and 5.6 % CRB and 6.2 % CRB and 6.1 % CRB and 6.4 % CRB and 10.8 % CRB and 16.0 % CRB and 19.6 % CRB and 18.7 % CRB and 12.5 % CRB and 26.0 % CRB and 14.2 % CRB and 23.0 % CRB and 36.9 % CRB and 38.5 % CRB and 34.5 % CRB and 0.4 % CRB and 1.3 % CRB; EF5 binding maximum CF95 ([1]; individual patient tumor, brightest binding of all tissue sections, biopsy 24-48 h after EF5 IV 9-21 mg/kg): 1.4 % CRB (2×) and 2.8 % CRB and 6.0 % CRB and 7.9 % CRB and 8.2 % CRB and 8.9 % CRB and 10.0 % CRB and 16.4 % CRB and 17.8 % CRB and 19.4 % CRB and 23.1 % CRB and 25.4 % CRB and 30.7 % CRB and 35.8 % CRB and 36.0 % CRB and 61.7 % CRB and 66.0 % CRB and 66.5 % CRB and 66.6 % CRB and 1.2 % CRB and 1.3 % CRB; EF5-related grade 1 and 2 toxicity [2]: One patient each experienced EF5-related grade 1 and 2 toxicity; EF5-related grade 3 or 4 toxicity ([2]; 30 days following EF5 administration): no episodes of EF5-related grade 3 or 4 toxicity; Maximum EF5 binding (%) (hypoxic cells; Anoxia, pO2 0%): 100%; Maximum EF5 binding (%) (hypoxic cells; Moderate hypoxia, pO2 0.5% (3.8 mm Hg)): 10%; Maximum EF5 binding (%) (hypoxic cells; Modest (mild) hypoxia, pO2 2.5% (19 mm Hg)): 3%; Maximum EF5 binding (%) (hypoxic cells; Normoxia, pO2 10% (76 mm Hg)): 1%; Maximum EF5 binding (%) (hypoxic cells; Severe hypoxia, pO2 0.1% (0.76 mm Hg)): 30%

Q: With `COCC(O)Cn1ccnc1[N+](=O)[O-]` (stereo not drawn) [misonidazole] as the compound, how does the “Effectiveness as hypoxic cell sensitizer” value (HNSCC) read?
A: The value was “could be identified in a subset of patients”.

Q: With `Nc1n[n+]([O-])c2ccccc2[n+]1[O-]` [tirapazamine] as the compound, how does the “Outcome (local-regional failure) of patients with hypoxic tumors” value (HNSCC hypoxic tumors) read?
A: The value was “did as well as those with oxic tumors”.
